According to US10350230B2, “Use of albiflorin or pharmaceutically acceptable salt for prevention and/or treatment of irritable bowel syndrome” (priority 2015, dated 2019):
Where a name gives a salt, the structure may show the parent alone.

What was measured:
[1] = tested on: diarrhea model of irritable bowel syndrome induced by restraint stress in rats; assay: Diarrhea of irritable bowel syndrome induced by restraint stress in rat; type: in vivo; conditions: for number of fecal pellets excreted (result in words): high-, mid- and low-dose groups, compared with model control group; for Number of fecal pellets excreted in 1 h / Time for excreting glass ball: 7 days, restraint stress rats
From the text: The restraint stress stimulus method was used to induce abnormal defecation in rats, thereby leading to increase of colon smooth muscle movement and accelerating intestinal transport.
The animals were randomly divided into 10 groups as follows: normal control group; model control group (normal saline); high-, mid- and low-dose groups of test drugs (albiflorin and paeoniflorin); and positive control groups (loperamide hydrochloride (Imodium™) and trimebutine maleate (Yuanshengliwei™)). Gavage administration was performed on each group once a day, for 7 consecutive days.
The rats were deprived of food for 24 hours before the test. Half an hour after the last administration, the rats were anesthetized with ethyl ether. After the rat fainted away, its front shoulder, front upper limbs and chest were bound with scotch tape to prevent the front upper limbs from scratching its face, but the movement of the front upper limbs was not limited. A glass ball with a diameter of 3 mm was placed into the rectum 3 cm away from anus. The rats were moved rapidly into cages which were padded with clean filter paper. Timing started when the rat woke up, and the binding time was one hour. The number of fecal pellets excreted by the rat in one hour and the time for excreting glass ball were recorded. Statistical analysis of data was performed using t-test for intergroup comparison.

[2] = tested on: small intestine spasm models induced by Neostigmine in mice; assay: Abdominal pain of irritable bowel syndrome in mice (Neostigmine small intestine spasm, carbon powder propulsion); type: in vivo; conditions: for propulsive distance and propulsive rate of carbon powder suspension in mice intestine tract stimulated by Neostigmine (result in words): high-, mid- and low-dose groups, compared with pathology modeling control group; for Propulsive distance / Propulsive rate: 7 days, Neostigmine mice, carbon powder
Experimental: All the animals were deprived of food for 12 hours before the test. […] After 15 minutes, gavage administration of carbon powder paste was performed on all groups (0.2 ml/10 g body weight, each dosage contains 0.05 g of carbon powder and 0.02 g of carboxymethyl cellulose). The animals were killed 20 minutes later. The propulsive length of carbon powder in small intestine and the total length of small intestine were measured respectively, and then the propulsive rate of carbon powder was calculated. Statistical analysis of data was performed using t-test for intergroup comparison.
The propulsive distance: to measure the propulsive length of carbon powder in small intestine.
Propulsive rate (%)=(propulsive length/total length of small intestine)×100%.

[3] = tested on: chronic unpredictable stress (CUS) model in rats; assay: Chronic stress depression model in rats: open field test; conditions: for Number of times of horizontal movement in open field / Number of times of vertical movement in open field: CUS rats, 5 min, Means±SEM; for number of times of horizontal movement of rats in open field (result in words) / number of times of vertical movement of rats in open field (result in words): compared with the model group
[4] = tested on: mice in light-dark shuttle box; assay: Light-dark shuttle box test in mice (anti-anxiety test); type: in vivo; conditions: for number of times of returning from the dark box back to the light box (result in words): albiflorin high-, mid- and low-dose groups, diazepam group, compared with normal control group; for Number of times of returning from dark box back to light box: 7 days, mice
Experimental: Mice were randomly divided into 5 groups, i.e. high-dose group of albiflorin (14 mg/kg/d), mid-dose group of albiflorin (7 mg/kg/d), low-dose group of albiflorin (3.5 mg/kg/d), diazepam group (2.5 mg/kg/d), and normal control group. Gavage administration was performed once a day, for 7 consecutive days. During the administration, animals had free access to food and water. The test was carried out 1 hour after the administration on Day 8.
Within the light-dark shuttle box (44 cm×21 cm×21 cm), the dark box accounts for one third thereof, with a cover on the top; and the light box accounts for two thirds thereof, with illumination brightness; and there is a hole between the two boxes for animal to pass through. During the test, mice were placed in the center of the light box, back to the dark box, and then observed. The number of times of entering into the dark box followed by returning to the light box in mice was counted, which was used as an index for the evaluation of anti-anxiety effect of a drug.
8.1.5 Statistical Analysis The data were expressed as X±SD, and the experimental results were analyzed by one-way ANOVA, using SPSS 11.5 statistical software.

[5] = tested on: sleep time of mice induced by threshold dose of pentobarbital sodium; assay: Sleep induced by pentobarbital sodium in mice; type: in vivo; conditions: for Sleep time: 60 min before pentobarbital sodium 50 mg/kg i.p., mice; for sleep time of mice induced by threshold dose of pentobarbital sodium (result in words): compared with normal saline group
Experimental: Mice with a body weight of 18-22 g, male and female, were selected. Mice with a single-sex were used in each test. The mice were randomly divided into groups as follows: albiflorin group, diazepam group (positive control group) and control group (normal saline). There were 10 mice in each group. 60 minutes after the gavage administration, threshold dose of pentobarbital sodium (50 mg/kg) was injected intraperitoneally. The disappearance of righting reflex was recorded as time to fall asleep, and the period from the righting reflex being disappeared until the righting reflex being recovered was recorded as sleep duration time. Compared with the control group, the significance was determined by time t test.

[6] = tested on: chronic unpredictable stress (CUS) model in rats; assay: Chronic stress depression model in rats: sucrose aqueous solution-drinking test; conditions: for Sugar aqueous solution preference: 38 days, CUS rats, Means±SEM; for sugar aqueous solution preference of rats (result in words): compared with the model group

## C[C@]12C[C@@H](O)[C@@H]3C[C@@]1(O[C@@H]1O[C@H](CO)[C@@H](O)[C@H](O)[C@H]1O)[C@@]3(COC(=O)c1ccccc1)C(=O)O2 [Albiflorin]
[1]
  number of fecal pellets excreted (result in words): decreased obviously
[1]; high-dose, 9.8 mg/kg/d gavage
  Number of fecal pellets excreted in 1 h: 2.50 ± 1.27
  Time for excreting glass ball: 10.60 ± 17.58 min
[1]; low-dose, 2.45 mg/kg/d gavage
  Number of fecal pellets excreted in 1 h: 2.60 ± 1.84
  Time for excreting glass ball: 19.90 ± 17.69 min
[1]; mid-dose, 4.9 mg/kg/d gavage
  Number of fecal pellets excreted in 1 h: 1.80 ± 1.48
  Time for excreting glass ball: 12.00 ± 17.53 min
[2]
  propulsive distance and propulsive rate of carbon powder suspension in mice intestine tract stimulated by Neostigmine (result in words): decreased obviously
[2]; high-dose, 14 mg/kg/d gavage
  Propulsive distance: 22.80 ± 4.78 cm
  Propulsive rate: 57.47 ± 10.67 %
[2]; low-dose, 3.5 mg/kg/d gavage
  Propulsive distance: 22.10 ± 3.90 cm
  Propulsive rate: 57.05 ± 4.69 %
[2]; mid-dose, 7 mg/kg/d gavage
  Propulsive distance: 20.80 ± 4.64 cm
  Propulsive rate: 54.53 ± 9.39 %
[3]; 3.5 mg/kg gavage once a day
  Number of times of horizontal movement in open field: 95.40 ± 9.23
  Number of times of vertical movement in open field: 20.50 ± 1.81
[3]; 3.5 mg/kg
  number of times of horizontal movement of rats in open field (result in words): obviously increased
[3]; 7.0 mg/kg and 14.0 mg/kg
  number of times of horizontal movement of rats in open field (result in words): can not obviously increase
[3]; 7.0 mg/kg gavage once a day
  Number of times of horizontal movement in open field: 98.20 ± 8.61
  Number of times of vertical movement in open field: 21.10 ± 2.17
[3]; 14.0 mg/kg gavage once a day
  Number of times of horizontal movement in open field: 104.10 ± 11.11
  Number of times of vertical movement in open field: 22.10 ± 2.66
[3]; 3.5-14.0 mg/kg
  number of times of vertical movement of rats in open field (result in words): obviously increased
[4]
  number of times of returning from the dark box back to the light box (result in words): significantly increase
[4]; high-dose, 14 mg/kg/d gavage
  Number of times of returning from dark box back to light box: 13.9 ± 3.23
[4]; low-dose, 3.5 mg/kg/d gavage
  Number of times of returning from dark box back to light box: 10.6 ± 3.42
[4]; mid-dose, 7 mg/kg/d gavage
  Number of times of returning from dark box back to light box: 12.1 ± 3.51
[5]; 7 mg/kg gavage
  Sleep time: 90.2 ± 15.1 min
[5]; 14 mg/kg gavage
  Sleep time: 98.8 ± 12.4 min
[5]
  sleep time of mice induced by threshold dose of pentobarbital sodium (result in words): obviously prolong
[6]; 3.5 mg/kg gavage once a day
  Sugar aqueous solution preference: 60.04 ± 10.86%
[6]; 3.5 mg/kg
  sugar aqueous solution preference of rats (result in words): did not obviously increase
[6]; 7.0 mg/kg and 14.0 mg/kg
  sugar aqueous solution preference of rats (result in words): obviously increased
[6]; 7.0 mg/kg gavage once a day
  Sugar aqueous solution preference: 76.19 ± 5.35 %
[6]; 14.0 mg/kg gavage once a day
  Sugar aqueous solution preference: 78.12 ± 4.04 %

## CNCCC(Oc1ccc(C(F)(F)F)cc1)c1ccccc1 (stereo not shown) [Flx, Fluoxetine, reference compound]
[3]; 10 mg/kg gavage once a day
  Number of times of horizontal movement in open field: 90.60 ± 7.72
  Number of times of vertical movement in open field: 20.80 ± 1.93
[3]; 10 mg/kg long-term gavage
  number of times of horizontal movement of rats in open field (result in words): obviously increased
  number of times of vertical movement of rats in open field (result in words): obviously increased
[6]; 10 mg/kg gavage once a day
  Sugar aqueous solution preference: 70.63 ± 6.86 %
[6]; 10 mg/kg long-term gavage
  sugar aqueous solution preference of rats (result in words): obviously increased

## CN(C)C(=O)C(CCN1CCC(O)(c2ccc(Cl)cc2)CC1)(c1ccccc1)c1ccccc1 [Loperamide hydrochloride, loperamide hydrochloride]
[1]; 0.17 mg/kg/d gavage
  Number of fecal pellets excreted in 1 h: 1.40 ± 0.97
  Time for excreting glass ball: 26.00 ± 28.30 min

## C[C@@]12C[C@@]3(O)O[C@@H](O1)[C@]1(COC(=O)c4ccccc4)[C@H]3C[C@@]12O[C@@H]1O[C@H](CO)[C@@H](O)[C@H](O)[C@H]1O [Paeoniflorin, paeoniflorin, reference compound]
[1]
  number of fecal pellets excreted (result in words): only a trend to decrease
[1]; high-dose, 9.8 mg/kg/d gavage
  Number of fecal pellets excreted in 1 h: 3.71 ± 2.02
  Time for excreting glass ball: 10.70 ± 16.06 min
[1]; low-dose, 2.45 mg/kg/d gavage
  Number of fecal pellets excreted in 1 h: 4.10 ± 1.81
  Time for excreting glass ball: 10.64 ± 15.01 min
[1]; mid-dose, 4.9 mg/kg/d gavage
  Number of fecal pellets excreted in 1 h: 3.96 ± 1.36
  Time for excreting glass ball: 10.50 ± 14.03 min
[2]
  propulsive distance and propulsive rate of carbon powder suspension in mice intestine tract stimulated by Neostigmine (result in words): decreased only in high-dose group
[2]; high-dose, 14 mg/kg/d gavage
  Propulsive distance: 28.80 ± 3.79 cm
  Propulsive rate: 65.64 ± 8.80%
[2]; low-dose, 3.5 mg/kg/d gavage
  Propulsive distance: 31.80 ± 3.79 cm
  Propulsive rate: 72.64 ± 4.69%
[2]; mid-dose, 7 mg/kg/d gavage
  Propulsive distance: 31.00 ± 1.93 cm
  Propulsive rate: 71.92 ± 7.51%

## CN1C(=O)CN=C(c2ccccc2)c2cc(Cl)ccc21 [Diazepam, diazepam, reference compound]
[4]; 2.5 mg/kg/d gavage
  Number of times of returning from dark box back to light box: 13.6 ± 3.35
[4]
  number of times of returning from the dark box back to the light box (result in words): significantly increase
[5]; 0.5 mg/kg gavage
  Sleep time: 96. ± 14.6 min
[5]; 1 mg/kg gavage
  Sleep time: 102.0 ± 16.2 min
[5]
  sleep time of mice induced by threshold dose of pentobarbital sodium (result in words): obviously prolong

## trimebutine maleate
[1]; 6.25 mg/kg/d gavage
  Number of fecal pellets excreted in 1 h: 3.70 ± 2.26
  Time for excreting glass ball: 17.80 ± 21.88 min
